ChEMBL document CHEMBL4138146, “A Schmidt rearrangement-mediated synthesis of novel tetrahydro-benzo[1,4]diazepin-5-ones as potential anticancer and antiprotozoal agents” (Eur J Med Chem, 2017)

Experiments:
Format in all cases: functional
MCF7 = assay: Growth inhibition of human MCF7 cells assessed as cell growth at 10^-4 M incubated for 48 hrs by sulforhodamine B assay relative to control; conditions: MCF7, 48 h, read-out: Activity
ACHN = assay: Growth inhibition of human ACHN cells assessed as cell growth at 10^-8 M incubated for 48 hrs by sulforhodamine B assay relative to control; conditions: read-out: Activity
MDA-MB-231 = assay: Growth inhibition of human MDA-MB-231 cells assessed as cell growth at 10^-4 M incubated for 48 hrs by sulforhodamine B assay relative to control; conditions: MDA-MB-231, 48 h, read-out: Activity
NCI-H460 = assay: Growth inhibition of human NCI-H460 cells assessed as cell growth at 10^-6 M incubated for 48 hrs by sulforhodamine B assay relative to control; conditions: NCI-H460, 48 h, read-out: Activity
NCI-H23 = assay: Growth inhibition of human NCI-H23 cells assessed as cell growth at 10^-4 M incubated for 48 hrs by sulforhodamine B assay relative to control; conditions: NCI-H23, 48 h, read-out: Activity
MDA-MB-468 [1] = assay: Growth inhibition of human MDA-MB-468 cells assessed as cell growth at 10^-5 M incubated for 48 hrs by sulforhodamine B assay relative to control; conditions: MDA-MB-468, 48 h, read-out: Activity
NCI-H322M = assay: Growth inhibition of human NCI-H322M cells assessed as cell growth at 10^-7 M incubated for 48 hrs by sulforhodamine B assay relative to control; conditions: read-out: Activity
BT-549 = assay: Growth inhibition of human BT549 cells assessed as cell growth at 10^-7 M incubated for 48 hrs by sulforhodamine B assay relative to control; conditions: BT-549, 48 h, read-out: Activity
HOP-92 = assay: Growth inhibition of human HOP92 cells assessed as cell growth at 10^-5 M incubated for 48 hrs by sulforhodamine B assay relative to control; conditions: HOP-92, 48 h, read-out: Activity
M14 = assay: Growth inhibition of human M14 cells assessed as cell growth at 10^-8 M incubated for 48 hrs by sulforhodamine B assay relative to control; conditions: M14, 48 h, read-out: Activity
T47D [2] = assay: Growth inhibition of human T47D cells assessed as cell growth at 10^-7 M incubated for 48 hrs by sulforhodamine B assay relative to control; conditions: read-out: Activity
OVCAR-5 = assay: Growth inhibition of human OVCAR5 cells assessed as cell growth at 10^-7 M incubated for 48 hrs by sulforhodamine B assay relative to control; conditions: OVCAR-5, 48 h, read-out: Activity
SF-539 = assay: Growth inhibition of human SF539 cells assessed as cell growth at 10^-8 M incubated for 48 hrs by sulforhodamine B assay relative to control; conditions: SF-539, 48 h, read-out: Activity
SK-MEL-5 = assay: Growth inhibition of human SK-MEL-5 cells assessed as cell growth at 10^-7 M incubated for 48 hrs by sulforhodamine B assay relative to control; conditions: SK-MEL-5, 48 h, read-out: Activity
SK-MEL-28 = assay: Growth inhibition of human SK-MEL-28 cells assessed as cell growth at 10^-5 M incubated for 48 hrs by sulforhodamine B assay relative to control; conditions: SK-MEL-28, 48 h, read-out: Activity
RXF 393 = assay: Growth inhibition of human RXF393 cells assessed as cell growth at 10^-5 M incubated for 48 hrs by sulforhodamine B assay relative to control; conditions: RXF 393, 48 h, read-out: Activity
EKVX = assay: Growth inhibition of human EKVX cells assessed as cell growth at 10^-5 M incubated for 48 hrs by sulforhodamine B assay relative to control; conditions: read-out: Activity
K562 [3] = assay: Growth inhibition of human K562 cells assessed as cell growth at 10^-6 M incubated for 48 hrs by sulforhodamine B assay relative to control; conditions: K562, 48 h, read-out: Activity
SNB-75 [4] = assay: Growth inhibition of human SNB75 cells assessed as cell growth at 10^-8 M incubated for 48 hrs by sulforhodamine B assay relative to control; conditions: SNB-75, 48 h, read-out: Activity
U-251 [5] = assay: Growth inhibition of human U251 cells assessed as cell growth at 10^-8 M incubated for 48 hrs by sulforhodamine B assay relative to control; conditions: U-251, 48 h, read-out: Activity
K562 [6] = assay: Growth inhibition of human K562 cells assessed as cell growth at 10^-7 M incubated for 48 hrs by sulforhodamine B assay relative to control; conditions: K562, 48 h, read-out: Activity
KM12 = assay: Growth inhibition of human KM12 cells assessed as cell growth at 10^-4 M incubated for 48 hrs by sulforhodamine B assay relative to control; conditions: KM12, 48 h, read-out: Activity
OVCAR-3 = assay: Growth inhibition of human OVCAR3 cells assessed as cell growth at 10^-7 M incubated for 48 hrs by sulforhodamine B assay relative to control; conditions: OVCAR-3, 48 h, read-out: Activity
SNB-19 = assay: Growth inhibition of human SNB19 cells assessed as cell growth at 10^-4 M incubated for 48 hrs by sulforhodamine B assay relative to control; conditions: SNB-19, 48 h, read-out: Activity
U-251 [7] = assay: Growth inhibition of human U251 cells assessed as cell growth at 10^-5 M incubated for 48 hrs by sulforhodamine B assay relative to control; conditions: U-251, 48 h, read-out: Activity
SNB-75 [8] = assay: Growth inhibition of human SNB75 cells assessed as cell growth at 10^-4 M incubated for 48 hrs by sulforhodamine B assay relative to control; conditions: SNB-75, 48 h, read-out: Activity
SR = assay: Growth inhibition of human SR cells assessed as cell growth at 10^-5 M incubated for 48 hrs by sulforhodamine B assay relative to control; conditions: read-out: Activity
NCI-H226 = assay: Growth inhibition of human NCI-H226 cells assessed as cell growth at 10^-8 M incubated for 48 hrs by sulforhodamine B assay relative to control; conditions: NCI-H226, 48 h, read-out: Activity
SK-MEL-2 = assay: Growth inhibition of human SK-MEL-2 cells assessed as cell growth at 10^-6 M incubated for 48 hrs by sulforhodamine B assay relative to control; conditions: SK-MEL-2, 48 h, read-out: Activity
MDA-MB-468 [9] = assay: Growth inhibition of human MDA-MB-468 cells assessed as cell growth at 10^-7 M incubated for 48 hrs by sulforhodamine B assay relative to control; conditions: MDA-MB-468, 48 h, read-out: Activity
T47D [10] = assay: Growth inhibition of human T47D cells assessed as cell growth at 10^-6 M incubated for 48 hrs by sulforhodamine B assay relative to control; conditions: read-out: Activity
DU-145 = assay: Growth inhibition of human DU145 cells assessed as cell growth at 10^-6 M incubated for 48 hrs by sulforhodamine B assay relative to control; conditions: DU-145, 48 h, read-out: Activity
COLO 205 [11] = assay: Growth inhibition of human COLO205 cells assessed as cell growth at 10^-6 M incubated for 48 hrs by sulforhodamine B assay relative to control; conditions: COLO 205, 48 h, read-out: Activity
COLO 205 [12] = assay: Growth inhibition of human COLO205 cells assessed as cell growth at 10^-5 M incubated for 48 hrs by sulforhodamine B assay relative to control; conditions: COLO 205, 48 h, read-out: Activity

Work on `CCCCOc1nc2ccccc2cc1C1CNC(=O)c2ccccc2N1` (centres undefined) yielded a growth at 100 µM (MCF7) of -40%, a growth at 0.01 µM (ACHN) of 103% and a growth at 100 µM (MDA-MB-231) of -53%. The growth at 1 µM (NCI-H460) was 94%, the growth at 100 µM (NCI-H23) was -26% and the growth at 10 µM (MDA-MB-468 [1]) was -10%. For the same molecule, the growth at 0.1 µM (NCI-H322M) was 95%, the growth at 0.1 µM (BT-549) was 104% and the growth at 10 µM (HOP-92) was 21%. The growth at 0.01 µM (M14) was 96%, the growth at 0.1 µM (T47D [2]) was 99% and the growth at 0.1 µM (OVCAR-5) was 102%. The growth at 0.01 µM (SF-539) was 89%, the growth at 0.1 µM (SK-MEL-5) was 100% and the growth at 10 µM (SK-MEL-28) was 44%. For the same molecule, the growth at 10 µM (RXF 393) was 5%, the growth at 10 µM (EKVX) was 31% and the growth at 1 µM (K562 [3]) was 46%. For the same molecule, the growth at 0.01 µM (SNB-75 [4]) was 73%, the growth at 0.01 µM (U-251 [5]) was 99% and the growth at 0.1 µM (K562 [6]) was 95%. For the same molecule, the growth at 100 µM (KM12) was -2%, the growth at 0.1 µM (OVCAR-3) was 98% and the growth at 100 µM (SNB-19) was -5%. It also gave a growth at 10 µM (U-251 [7]) of 12%, a growth at 100 µM (SNB-75 [8]) of -79% and a growth at 10 µM (SR) of 1%. It also gave a growth at 0.01 µM (NCI-H226) of 97%, a growth at 1 µM (SK-MEL-2) of 86% and a growth at 0.1 µM (MDA-MB-468 [9]) of 93%. For the same molecule, the growth at 1 µM (T47D [10]) was 86%, the growth at 1 µM (DU-145) was 95% and the growth at 1 µM (COLO 205 [11]) was 98%. For the same molecule, the growth at 10 µM (COLO 205 [12]) was -43%.
